{"source": "patent EP0067897A1", "about": "“A pharmaceutical composition for use in raised intracranial pressure” (Tanabe Seiyaku Co., Ltd., priority 1981, dated 1982)", "key": {"Male SD-strain rats": {"test_system": "Male SD-strain rats", "assay": "Effect on intracranial pressure (cerebrospinal fluid pressure in the cisterna magna) in urethane-anesthetized rats after oral administration", "assay_type": "in vivo", "details": "8 mg/kg orally", "experimental": "Male SD-strain rats weighing […] (each group consisiting of 5 rats) were fasted for about 20 hours, and anesthetized with urethane. 1-(4-acetamido-2-methoxyphenoxy)-3-[4-(3-fluorophenyl)piperazino]-2-propanol (free base) was administered orally to the rats at a dose of 8 mg/kg. Intracranial pressure (i.e., cerebrospinal fluid pressure in the cisterna magna) was continuously monitored via a cannula inserted in the cisterna magna. The cannula was connected to a transducer, and recordings were made on graph paper. The effect of said test compound on the intracranial pressure was estimated in terms of the increase or decrease in intracranial pressure, which was calculated in accordance with the following formula: [formula]"}, "[1]": {"assay": "Acute toxicity after oral administration", "details": "mouse, in vivo; oral administration to male mice, estimated a week after administration", "text": "Unlike those of the hypertonic solutions of glycerol or mannitol, the therapeutic effect of the propanol derivative (I) of the present invention is not ascribable to the cerebral dehydrating effect. The propanol derivative (I) may be used for the treatment or prophylaxis of increased intracranial pressure during and after brain surgical operation. Moreover, the propanol derivative (I) may be used for improving impaired consciousness, nervous disturbance and subjective symptoms (e.g., headache, nausea, vomiting) which are attributed to the cerebral diseases such as those mentioned hereinbefore. Further, whereas it is known that cerebral edema induces an increase in intracranial pressure and increased intracranial pressure serves to cause a build-up of edema which in turn impairs cerebral circulation, the propanol derivative (I) can interrupt such vicious cycle of cerebral diseases because of its potent intracranial pressure-lowering effect and ameliorate the cerebral circulatory impairment. The toxicity of the propanol derivative (I) of the invention is low."}}, "data": [{"smiles": "COc1cc(NC(C)=O)ccc1OCC(O)CN1CCN(c2cccc(F)c2)CC1", "note": "(stereo not shown) [1-(4-acetamido-2-methoxyphenoxy)-3-[4-(3-fluorophenyl)piperazino]-2-propanol]", "values": [{"measurement": "Changes in intracranial pressure (%)", "setting": "Male SD-strain rats; 20 minutes after administration, pre-dose pressure = 100 (70 ± 3.1 mm H2O), 5 rats", "result": 85.4, "unit": "%"}, {"measurement": "Changes in intracranial pressure (%)", "setting": "Male SD-strain rats; 60 minutes after administration, pre-dose pressure = 100", "result": 83.5, "unit": "%"}, {"measurement": "Changes in intracranial pressure (%)", "setting": "Male SD-strain rats; 120 minutes after administration, pre-dose pressure = 100", "result": 77.7, "unit": "%"}, {"measurement": "Changes in intracranial pressure (%)", "setting": "Male SD-strain rats; 180 minutes after administration, pre-dose pressure = 100", "result": 76.5, "unit": "%"}, {"measurement": "Changes in intracranial pressure (%)", "setting": "Male SD-strain rats; 240 minutes after administration, pre-dose pressure = 100", "result": 75.6, "unit": "%"}, {"measurement": "Changes in intracranial pressure (%)", "setting": "Male SD-strain rats; 300 minutes after administration, pre-dose pressure = 100", "result": 77.9, "unit": "%"}, {"measurement": "LD50 at 168 h", "setting": "[1]", "result": "~1500", "unit": "mg/kg"}]}]}
